Key:
[1] = biological target: Proto-oncogene tyrosine-protein kinase receptor Ret [G810R] (Human, UniProt P07949, G810R); assay: HTRF Assay
[2] = biological target: Proto-oncogene tyrosine-protein kinase receptor Ret [V804M] (Human, UniProt P07949, V804M); assay: HTRF Assay
Proto-oncogene tyrosine-protein kinase receptor Ret [V804M], sequence (P07949 29-1114 V804M limits assumed): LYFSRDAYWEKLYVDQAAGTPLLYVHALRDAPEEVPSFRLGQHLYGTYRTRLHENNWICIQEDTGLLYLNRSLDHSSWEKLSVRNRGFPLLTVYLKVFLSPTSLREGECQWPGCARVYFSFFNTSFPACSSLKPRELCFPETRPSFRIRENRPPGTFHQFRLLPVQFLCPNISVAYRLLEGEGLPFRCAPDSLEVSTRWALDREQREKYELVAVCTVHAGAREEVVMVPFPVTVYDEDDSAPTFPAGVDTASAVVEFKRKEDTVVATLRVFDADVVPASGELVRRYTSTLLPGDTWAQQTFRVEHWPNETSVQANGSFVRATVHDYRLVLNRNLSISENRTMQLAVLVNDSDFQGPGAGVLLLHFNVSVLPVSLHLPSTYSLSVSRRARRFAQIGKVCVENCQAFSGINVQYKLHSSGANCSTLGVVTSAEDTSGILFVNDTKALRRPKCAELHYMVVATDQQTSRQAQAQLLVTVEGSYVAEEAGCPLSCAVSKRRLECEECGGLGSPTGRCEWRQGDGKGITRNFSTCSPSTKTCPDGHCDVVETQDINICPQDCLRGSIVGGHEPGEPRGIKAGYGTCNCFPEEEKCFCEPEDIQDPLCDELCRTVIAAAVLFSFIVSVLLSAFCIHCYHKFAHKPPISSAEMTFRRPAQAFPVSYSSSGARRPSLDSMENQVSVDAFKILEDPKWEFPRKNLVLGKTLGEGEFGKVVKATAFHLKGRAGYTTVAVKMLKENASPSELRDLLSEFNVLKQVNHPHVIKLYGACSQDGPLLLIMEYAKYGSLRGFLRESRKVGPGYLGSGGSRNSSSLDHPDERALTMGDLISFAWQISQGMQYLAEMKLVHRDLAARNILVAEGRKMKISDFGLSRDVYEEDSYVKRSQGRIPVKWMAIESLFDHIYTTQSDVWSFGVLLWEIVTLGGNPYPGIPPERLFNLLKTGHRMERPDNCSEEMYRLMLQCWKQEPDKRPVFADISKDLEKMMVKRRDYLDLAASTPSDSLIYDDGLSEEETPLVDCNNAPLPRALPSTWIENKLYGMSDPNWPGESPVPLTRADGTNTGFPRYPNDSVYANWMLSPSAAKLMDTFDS

Proto-oncogene tyrosine-protein kinase receptor Ret [G810R], sequence (P07949 29-1114 G810R limits assumed): as the sequence (P07949 29-1114 V804M limits assumed) above, with M776V, G782R counted along it

| SMILES | IC50 [1] [nM] | IC50 [2] [nM] |
| --- | --- | --- |
| CCOc1cc(-c2ccc(N3C[C@H](Oc4ccccn4)[C@@H](N)C3)nc2)c2c3cn[nH]c3nn2c1 [US20240174674, Compound 31] | 2.6 | – |
| CCOc1cc(-c2ccc(N3CC[C@H](NC(=O)CC(C)C)[C@H](O)C3)nc2)c2c3cn[nH]c3nn2c1 [US20240174674, Compound 40] | 2.2 | 0.1 |
| CCOc1cc(-c2ccc(N3C[C@H]4C[C@@H](NC(=O)c5c(F)cccc5Cl)C[C@H]4C3)nc2)c2c3cn[nH]c3nn2c1 [US20240174674, Compound 176] | 12.1 | – |
| CCOc1cc(-c2ccc(N3CC[C@H](NC(=O)c4ncc(F)cc4Cl)[C@H](O)C3)nc2)c2c3cn[nH]c3nn2c1 [US20240174674, Compound 285] | 5 | – |
